Assay results from patent US12390441B2, “Immunomodulating o-het/aryl azalides” (Zoetis Services LLC, priority 2020, dated 2025).

What was measured:
Assay in all cases: Whole blood assay, LPS stimulation, MSD cytokine detection
[1] = test system: IL-6; format: cell-based; settings: fresh whole bovine blood
[2] = test system: IL-1β; format: cell-based, bovine; settings: fresh whole bovine blood, LPS stimulation; drug concentration giving overstimulation (OS) of IL-1β
Experimental: (§1) Compounds of the invention were evaluated against a positive control for their ability to inhibit LPS-induced IL-1p and TNF-α as an overall evaluation of relative potency and modulation of target pathways.
(§2) In the bovine whole blood in vitro screening assay the inhibition of TNFα as induced by stimulation by lipopolysaccharide (LPS) and as measured by half the maximal inhibitory concentration (IC50) is recognized as the primary biomarker of immunomodulation potency upon pretreatment with the compounds of the invention. IL-1β is a mediator of the inflammation response and is involved in a number of cellular activities including proliferation, differentiation and apoptosis. IL-1β is also released upon cellular stress or cytotoxicity or upon TLR stimulation. In the bovine whole blood assay the stimulation of IL-1β release upon increasing concentration of test compound is seen as a potential cellular toxicity signal as induced by the test compound. In order to estimate a therapeutic index from the in vitro assay a differential between the TNFα IC50 (immunomodulation potency) versus the perceived cellular toxicity concentration (IL-1β release or overstimulation) was utilized. […] As the in vitro assay index approaches 1 it is proposed that the balance between immunomodulation and cytotoxicity would be too narrow in order to achieve an efficacious dose in vivo.

[3] = test system: TNF-α; format: cell-based; settings: fresh whole bovine blood
Experimental: as §1, §2

IC50 [1] [µM]	IC50 [3] [µM]	IC50 ([1]; Bos taurus) [µM]	IC50 ([3]; Bos taurus) [µM]	Compound	IL-1ß OS of LPS [2] [µM]
4	5			CCCNC[C@]1(O)[C@H](C)O[C@@H](O[C@H]2[C@H](C)[C@@H](O[C@@H]3O[C@H](C)C[C@H](NC4CCCCC4)[C@H]3Oc3ccccc3)[C@](C)(O)C[C@@H](C)CN[C@H](C)[C@@H](O)[C@](C)(O)[C@@H](CC)OC(=O)[C@@H]2C)C[C@@]1(C)OC [Example E-154]	1
1	2			CCCNC[C@]1(O)[C@H](C)O[C@@H](O[C@H]2[C@H](C)[C@@H](O[C@@H]3O[C@H](C)C[C@H](N(C)Cc4ccccc4)[C@H]3Oc3ccccc3)[C@](C)(O)C[C@@H](C)CN[C@H](C)[C@@H](O)[C@](C)(O)[C@@H](CC)OC(=O)[C@@H]2C)C[C@@]1(C)OC [Example E-148]	1
21	23			CCCNC[C@]1(O)[C@H](C)O[C@@H](O[C@H]2[C@H](C)[C@@H](O[C@@H]3O[C@H](C)C[C@H](NC)[C@H]3Oc3ccccc3)[C@](C)(O)C[C@@H](C)CN(C)[C@H](C)[C@@H](O)[C@](C)(O)[C@@H](CC)OC(=O)[C@@H]2C)C[C@@]1(C)OC [Example E-152]	16
10	8			CCCNC[C@]1(O)[C@H](C)O[C@@H](O[C@H]2[C@H](C)[C@@H](O[C@@H]3O[C@H](C)C[C@H](N(CC)CC)[C@H]3Oc3ccccc3)[C@](C)(O)C[C@@H](C)CN[C@H](C)[C@@H](O)[C@](C)(O)[C@@H](CC)OC(=O)[C@@H]2C)C[C@@]1(C)OC [Example E-156]	16
4	11			CCCNC[C@]1(O)[C@H](C)O[C@@H](O[C@H]2[C@H](C)[C@@H](O[C@@H]3O[C@H](C)C[C@H](N(C)C(=O)N(C)C(C)C)[C@H]3Oc3ccccc3)[C@](C)(O)C[C@@H](C)CN[C@H](C)[C@@H](O)[C@](C)(O)[C@@H](CC)OC(=O)[C@@H]2C)C[C@@]1(C)OC [Example F-27]	1
167	169			CCCNC[C@]1(O)[C@H](C)O[C@@H](O[C@H]2[C@H](C)[C@@H](O[C@@H]3O[C@H](C)C[C@H](N(C)C(=O)N(C)c4ncccn4)[C@H]3Oc3ccccc3)[C@](C)(O)C[C@@H](C)CN[C@H](C)[C@@H](O)[C@](C)(O)[C@@H](CC)OC(=O)[C@@H]2C)C[C@@]1(C)OC [Example F-8]	40
60	31			CC[C@H]1OC(=O)[C@H](C)[C@@H](O[C@H]2C[C@@](C)(OC)[C@](O)(CNCC3CC3)[C@H](C)O2)[C@H](C)[C@@H](O[C@@H]2O[C@H](C)C[C@H](NC)[C@H]2Oc2ccccc2)[C@](C)(O)C[C@@H](C)CN[C@H](C)[C@@H](O)[C@]1(C)O [Example E-132]	100
23	23			CCCNC[C@]1(O)[C@H](C)O[C@@H](O[C@H]2[C@H](C)[C@@H](O[C@@H]3O[C@H](C)C[C@H](NC)[C@H]3Oc3ccc(OC)cc3)[C@](C)(O)C[C@@H](C)CN(C)[C@H](C)[C@@H](O)[C@](C)(O)[C@@H](CC)OC(=O)[C@@H]2C)C[C@@]1(C)OC [Example E-151]	16
		8	8	CCCNC[C@]1(O)[C@H](C)O[C@@H](O[C@H]2[C@H](C)[C@@H](O[C@@H]3O[C@H](C)C[C@H](NCC(C)C)[C@H]3Oc3ccccc3)[C@](C)(O)C[C@@H](C)CN[C@H](C)[C@@H](O)[C@](C)(O)[C@@H](CC)OC(=O)[C@@H]2C)C[C@@]1(C)OC [Example E-155]	6

The next lines start with the molecule.

Compound	IC50 [1] [µM]	IC50 [3] [µM]	IC50 ([1]; Bos taurus) [µM]	IC50 ([3]; Bos taurus) [µM]	IL-1ß OS of LPS [2] [µM]
CC[C@H]1OC(=O)[C@H](C)[C@@H](O[C@H]2C[C@@](C)(OC)[C@@H](O)[C@H](C)O2)[C@H](C)[C@@H](O[C@@H]2O[C@H](C)C[C@H](N(C)C)[C@H]2Oc2cnc(Cl)cc2C)[C@](C)(O)C[C@@H](C)CN(C)[C@H](C)[C@@H](O)[C@]1(C)O [Example A-45]	12	4			40
CC[C@H]1OC(=O)[C@H](C)[C@@H](O[C@H]2C[C@@](C)(OC)[C@](O)(CN(C)CCN(C)C)[C@H](C)O2)[C@H](C)[C@@H](O[C@@H]2O[C@H](C)C[C@H](N(C)C)[C@H]2Oc2ccc(F)cc2)[C@](C)(O)C[C@@H](C)CN[C@H](C)[C@@H](O)[C@]1(C)O [Example E-113]	40	17			40
CC[C@H]1OC(=O)[C@H](C)[C@@H](O[C@H]2C[C@@](C)(OC)[C@@H](O)[C@H](C)O2)[C@H](C)[C@@H](O[C@@H]2O[C@H](C)C[C@H](N(C)C)[C@H]2Oc2ccc(F)c(C#N)c2)[C@](C)(O)C[C@@H](C)CN(C)[C@H](C)[C@@H](O)[C@]1(C)O [Example A-25]	12	3			16
CC[C@H]1OC(=O)[C@H](C)[C@@H](O[C@H]2C[C@@](C)(OC)[C@](O)(CNC3CC3)[C@H](C)O2)[C@H](C)[C@@H](O[C@@H]2O[C@H](C)C[C@H](NC)[C@H]2Oc2ccccc2)[C@](C)(O)C[C@@H](C)CN[C@H](C)[C@@H](O)[C@]1(C)O [Example E-125]	8	5			16
CCCNC[C@]1(O)[C@H](C)O[C@@H](O[C@H]2[C@H](C)[C@@H](O[C@@H]3O[C@H](C)C[C@H](NC)[C@H]3Oc3ccccc3OCC)[C@](C)(O)C[C@@H](C)CN[C@H](C)[C@@H](O)[C@](C)(O)[C@@H](CC)OC(=O)[C@@H]2C)C[C@@]1(C)OC [Example E-78]	54	16			17
CC[C@H]1OC(=O)[C@H](C)[C@@H](O[C@H]2C[C@@](C)(OC)[C@@H](O)[C@H](C)O2)[C@H](C)[C@@H](O[C@@H]2O[C@H](C)C[C@H](N(C)C)[C@H]2Oc2cnc3ccccc3c2)[C@](C)(O)C[C@@H](C)CN(C)[C@H](C)[C@@H](O)[C@]1(C)O [Example A-28]	11	3			16
CC[C@H]1OC(=O)[C@H](C)[C@@H](O)[C@H](C)[C@@H](O[C@@H]2O[C@H](C)C[C@H](N(C)C(=O)N(C)c3ncccn3)[C@H]2Oc2ccccc2)[C@](C)(O)C[C@@H](C)CN(C)[C@H](C)[C@@H](O)[C@]1(C)O [Example C-22]	151	94			100
CC[C@H]1OC(=O)[C@H](C)[C@@H](O[C@H]2C[C@@](C)(OC)[C@](O)(CNC(C)C)[C@H](C)O2)[C@H](C)[C@@H](O[C@@H]2O[C@H](C)C[C@H](NC)[C@H]2Oc2ccccc2)[C@](C)(O)C[C@@H](C)CN[C@H](C)[C@@H](O)[C@]1(C)O [Example E-127]	44	19			40
CCCNC[C@]1(O)[C@H](C)O[C@@H](O[C@H]2[C@H](C)[C@@H](O[C@@H]3O[C@H](C)C[C@H](NC)[C@H]3Oc3ccc(S(C)(=O)=O)cc3)[C@](C)(O)C[C@@H](C)CN[C@H](C)[C@@H](O)[C@](C)(O)[C@@H](CC)OC(=O)[C@@H]2C)C[C@@]1(C)OC [Example E-80]	65	45			>250
CC[C@H]1OC(=O)[C@H](C)[C@@H](O)[C@H](C)[C@@H](O[C@@H]2O[C@H](C)C[C@H](N(C)C(=O)N(C)c3ccccc3)[C@H]2Oc2ccc(Cl)nc2)[C@](C)(O)C[C@@H](C)CN[C@H](C)[C@@H](O)[C@]1(C)O [Example C-33]	< 1	6			16
CCOc1cccc(O[C@H]2[C@H](O[C@@H]3[C@@H](C)[C@H](O)[C@@H](C)C(=O)O[C@H](CC)[C@@](C)(O)[C@H](O)[C@@H](C)NC[C@H](C)C[C@@]3(C)O)O[C@H](C)C[C@@H]2N(C)C(=O)N(C)c2ccc(N(C)C)cc2)c1 [Example C-36]	10	2			16
CC[C@H]1OC(=O)[C@H](C)[C@@H](O[C@H]2C[C@@](C)(OC)[C@](O)(CNCCOC)[C@H](C)O2)[C@H](C)[C@@H](O[C@@H]2O[C@H](C)C[C@H](NC)[C@H]2Oc2ccccc2)[C@](C)(O)C[C@@H](C)CN[C@H](C)[C@@H](O)[C@]1(C)O [Example E-130]	71	32			40
CCOc1cccc(O[C@H]2[C@H](O[C@@H]3[C@@H](C)[C@H](O)[C@@H](C)C(=O)O[C@H](CC)[C@@](C)(O)[C@H](O)[C@@H](C)NC[C@H](C)C[C@@]3(C)O)O[C@H](C)C[C@@H]2N(C)C(=O)N(C)c2ccccc2)c1 [Example C-37]	< 1	5			16
CC[C@H]1OC(=O)[C@H](C)[C@@H](O[C@H]2C[C@@](C)(OC)[C@](O)(CNCC3CC3)[C@H](C)O2)[C@H](C)[C@@H](O[C@@H]2O[C@H](C)C[C@H](N(C)C)[C@H]2Oc2ccc(F)cc2)[C@](C)(O)C[C@@H](C)CN[C@H](C)[C@@H](O)[C@]1(C)O [Example E-37]	17	6			16
CC[C@H]1OC(=O)[C@H](C)[C@@H](O[C@H]2C[C@@](C)(OC)[C@](O)(CNC3CCOCC3)[C@H](C)O2)[C@H](C)[C@@H](O[C@@H]2O[C@H](C)C[C@H](N(C)C)[C@H]2Oc2ccccc2)[C@](C)(O)C[C@@H](C)CN[C@H](C)[C@@H](O)[C@]1(C)O [Example E-120]	11	8			16
